The source of these data is patent publication US6734318B2, “Fluorous triphase and other multiphase systems” (University of Pittsburgh, priority 2001, dated 2004).

Read-outs that look alike come from different tables or passages of the source. Marks after values point to notes of the source that are not given here.

A short description of series [1]: Transfer of organic compounds between two MeCN phases through an FC-72 phase (U-tube). It is filed as physicochemical. The settings on record: two MeCN phases through FC-72, 23° C., 3 days.
For series [2] the following is noted: between FC-72 and MeOH.
Series [3] is described as follows: Selective transport of a fluorous-tagged component of a mixture through FC-72 between two acetonitrile phases. The format is physicochemical.
A short description of series [4]: Transfer of 2a between two organic phases through an FC-72 phase (U-tube). It is filed as physicochemical. The note with it: FC-72 stirred 23° C., 3 days. As to the method: 2-(2-Naphtylethanol) 2a (10 mg) was dissolved in an organic solvent (1 ml) and the mixture was put into one side (side A) of U-tube 10 of FIG. 1, in which FC-72 (10 ml) was placed. The other organic solvent was put into the other side (side B) of U-tube 10 and the center phase (FC-72) was stirred (via, for example, magnetic stirring element 130) at 23° C. for 3 days without mixing the interfaces between the organic and FC-72 layers. The weights of each organic phase were measured after evaporation.

A short description of series [5]: U-tube transport of guest molecules from aqueous S-phase through FC-72 F-phase to basic aqueous P-phase, with or without fluorous transport agent 3b. It is filed as physicochemical. The settings on record: transport agent 3b about 1 mM in FC-72; S-phase water, P-phase pH 11.5 phosphate buffer; ambient temperature. As for the experimental part:
In an illustrative example, several transport experiments were carried out with a variety of guest molecules and fluorous transport agent 3b. The F-phase included transport agent 3b, at about 1 mM in the fluorous solvent FC-72. This F-phase was contacted in a U-tube with a first phase containing various organic compounds in water and a second aqueous phase containing hydroxide ion (pH 11.5 phosphate buffer). After various periods of time at ambient temperature, a portion of the more basic, P-phase was removed and subjected to quantitative analysis by UV absorbance spectrophotometry. The measured absorbances were converted to the concentration of each organic compound by the use of a calibration curve. The organic solutes tested were phenobarbital, secobarbital, mephobarbital, thiopental, 2-ethyl, 2-phenylmalonamide, and p-toluenesulfonate. […] The amount of each compound transported (as a fraction of the amount in the S-phase) is plotted versus time. The data points represent behavior of mephobarbital (represented by solid squares), secobarbital (represented by open squares), thiopental (represented by triangles), phenobarbital (represented by diamonds), malonamide and p-toluenesulfonate (both represented by open circles). Each of the barbiturates was transported through the fluorous phase in the presence of transport agent 3b. […]

Regarding `CC(N)c1cccc2ccccc12` (stereo not shown) [1-(1-naphthyl)ethylamine], in series [1], the “ratio (A/B)” value is listed as 82/18.
Still for that read-out and setting: for `CC(O)c1ccc2ccccc2c1` (stereo not shown) [1-(2-naphthyl)ethanol] the value was 96/4.
For the compound `CC(C)[Si](CCC(F)(F)C(F)(F)C(F)(F)C(F)(F)C(F)(F)C(F)(F)C(F)(F)C(F)(F)F)(OCCc1ccc2ccccc2c1)C(C)C` [1a, diisopropyl-1H,1H,2H,2H-perfluorodecanylsilyl 2-naphthylethyl ether], the “Kp (partition coefficient)” value in series [2] was found to be 0.92. Moreover, the partition coefficient reads like this: (FC-72 / CH2Cl2, 23 C) 0.14; (FC-72 / DMF, 23 C) 0.38; (FC-72 / EtOH, 23 C) 0.91; (FC-72 / MeCN, 23 C) 0.74; (FC-72 / MeOH, 23 C) 0.92; (FC-72 / THF, 23 C) 0.04.
As to `CC(C)[Si](CCC(F)(F)C(F)(F)C(F)(F)C(F)(F)C(F)(F)C(F)(F)F)(OCCc1ccc2ccccc2c1)C(C)C` [1c, Diisopropyl-1H,1H,2H,2H-perfluorooctanylsilyl 2-naphthylethyl ether], the “Kp (partition coefficient)” value in series [2] is on record as 0.39.
Same read-out and setting: under `CC(C)[Si](CCC(F)(F)C(F)(F)C(F)(F)C(F)(F)C(F)(F)C(F)(F)C(F)(F)C(F)(F)F)(O[C@@H](C)c1ccc2ccccc2c1)C(C)C` [1f, diisopropyl-1H,1H,2H,2H-perfluorodecanylsilyl (S)-(−)-1-(2-naphthyl)ethyl ether] stands 1.5.
Consider `CC(C)[Si](CCC(F)(F)C(F)(F)C(F)(F)C(F)(F)C(F)(F)C(F)(F)C(F)(F)C(F)(F)F)(OCC=Cc1ccccc1)C(C)C` [1g, (3,3,4,4,5,5,5,6,6,7,7,8,8,9,9,10,10,10,10-heptadecafluorodecyl)-diisopropyl(3-phenyl-allyloxy)silane], for which the “Kp (partition coefficient)” value in series [2] was 1.3. In addition, the “Mass of the residue (P-phase)” value came to 4.5 mg in series [3] (P-phase removed at 3 h, 1/1 mixture of 2a and 1g in acetonitrile S-phase); 6 mg in series [3] (P-phase removed at 7 h, fresh acetonitrile after each removal); 7 mg in series [3] (P-phase removed at 24 h, fresh acetonitrile after each removal).
For `CCc1ccc2ccccc2c1` [2-ethylnaphthalene], in series [1], the “ratio (A/B)” value is 66/33^a.
On to `CC(=O)Oc1ccc2ccccc2c1` [2-naphthyl acetate], for which the “ratio (A/B)” value in series [1] is recorded as 94/6.
Still for that read-out and setting: for `O=C(O)Cc1ccc2ccccc2c1` [2-naphthylacetic acid] the value was >99/1; for `CC(=O)Cc1ccc2ccccc2c1` [2-naphthylacetone], 91/9; for `N#CCc1ccc2ccccc2c1` [2-naphthylacetonitrile], 99/1.
As for `OCCc1ccc2ccccc2c1` [2a, 2-(2-naphthyl)ethanol], the “presence in P-phase by TLC or 1H NMR” value in series [3] (after 1d, 1/1 mixture with 1g in acetonitrile S-phase) was “not detected”. Further, the “ratio (A/B)” value in series [1] was 99/1. The “ratio of 2a (A/B)” value in series [4] (side A MeCN, side B MeCN) is given as 99/1; in series [4] (side A MeCN, side B MeOH), >99/1; in series [4] (side A MeCN, side B THF) it was >99/1; in series [4] (side A MeOH, side B MeCN), 99/1; in series [4] (side A MeOH, side B MeOH), 99/1; in series [4] (side A MeOH, side B THF), 96/4. For the same compound, the “ratio of 2a (A/B)” value is given as 97/3 in series [4] (side A THF, side B MeOH) and 90/10 in series [4] (side A THF, side B THF).
Take `OCC=Cc1ccccc1` [cinnamyl alcohol]: the “ratio (A/B)” value in series [1] was 99/1.
`CCCCCCCCCCCCO` [dodecanol]: the “ratio (A/B)” value in series [1] is 96/4.
Same read-out and setting: under `N#CCC#N` [malononitrile] stands >99/1.
In the case of p-toluenesulfonate, in series [5], the “transport through the fluorous phase to the P-phase” value is “no transport”.
